The values below come from patent US9346809B2 (LEO PHARMA A/S, priority 2009, dated 2016).

pEC50: −log10 of the molar value. Read-outs that look alike come from different tables or passages of the source.

Format in all cases: biochemical
The target of experiment [1] is T1, JAK1 (aa 850-1154, catalytic domain, GST-tag) (Homo sapiens, UniProt P23458).
T1 construct: JAK1 (aa 850-1154) and TYK2 (aa 871-1187) are expressed with an N-terminally fused GST-tag; GST (N); purchased Carna Biosciences, Inc; host or cells: baculovirus expression system
T1 sequence (P23458 850-1154): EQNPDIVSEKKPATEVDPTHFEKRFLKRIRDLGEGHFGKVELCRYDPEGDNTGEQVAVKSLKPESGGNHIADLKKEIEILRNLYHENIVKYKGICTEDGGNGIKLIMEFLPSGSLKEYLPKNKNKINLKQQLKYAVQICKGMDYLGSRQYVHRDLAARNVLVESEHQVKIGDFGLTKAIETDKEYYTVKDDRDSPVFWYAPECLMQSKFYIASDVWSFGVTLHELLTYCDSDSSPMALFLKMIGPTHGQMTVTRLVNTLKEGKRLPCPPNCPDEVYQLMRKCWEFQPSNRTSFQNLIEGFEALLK
The experiment can be described thus: JAK kinase assay (HTRF, phosphorylation of TK substrate-biotin), JAK1. The conditions noted are these: ATP at Km (7 μM), read-out: JAK1 kinase inhibitory activity (EC50 indicator). Put shortly: (§1)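 Catalytic-domain kinases phosphorylated 1 μM biotin-TK substrate at ATP Km (JAK1 7 μM, JAK2 4 μM, JAK3 2 μM, TYK2 13 μM) in Hepes pH 7.0 with DTT and MgCl2, for 20-30 min at RT; JAK1 and TYK2 also had 50 nM SEB. Detection was by HTRF (streptavidin-XL665/Cryptate antibody) overnight, giving EC50.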

For experiment [2], the target named is T2, JAK2 (catalytic domain, His-tag) (Homo sapiens, UniProt O60674).
T2 construct: All four purified enzymes contain only the catalytic domain; His (N); purchased Carna Biosciences, Inc; host or cells: baculovirus expression system
T2 sequence (O60674 849-1124 limits assumed): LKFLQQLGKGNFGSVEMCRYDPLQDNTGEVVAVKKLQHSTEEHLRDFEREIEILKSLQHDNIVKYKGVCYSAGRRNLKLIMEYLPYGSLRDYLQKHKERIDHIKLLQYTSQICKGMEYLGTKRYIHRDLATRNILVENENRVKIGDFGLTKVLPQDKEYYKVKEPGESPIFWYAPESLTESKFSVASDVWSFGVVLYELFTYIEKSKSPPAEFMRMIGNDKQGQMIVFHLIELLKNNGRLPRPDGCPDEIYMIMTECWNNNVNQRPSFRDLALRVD
The experiment can be described thus: JAK kinase assay (HTRF, phosphorylation of TK substrate-biotin), JAK2. As to conditions: ATP at Km (4 μM), read-out: JAK2 kinase inhibitory activity (EC50 indicator). The method, boiled down:
as §1
On the technique in general: TR-FRET usually uses a lanthanide donor and a delayed reading to cut background.

Experiment [3] deals with T3, JAK3 (catalytic domain, His-tag) (Homo sapiens, UniProt P52333).
T3 construct: All four purified enzymes contain only the catalytic domain; His (N); purchased Carna Biosciences, Inc; host or cells: baculovirus expression system
T3 sequence (P52333 822-1111 limits assumed): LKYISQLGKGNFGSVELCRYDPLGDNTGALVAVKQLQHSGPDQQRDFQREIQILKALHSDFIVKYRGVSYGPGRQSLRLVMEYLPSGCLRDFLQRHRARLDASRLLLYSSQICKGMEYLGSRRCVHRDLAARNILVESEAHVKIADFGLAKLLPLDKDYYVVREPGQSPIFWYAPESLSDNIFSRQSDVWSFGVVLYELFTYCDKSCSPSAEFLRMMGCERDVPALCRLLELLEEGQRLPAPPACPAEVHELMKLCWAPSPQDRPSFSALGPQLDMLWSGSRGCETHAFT
The experiment can be described thus: JAK kinase assay (HTRF, phosphorylation of TK substrate-biotin), JAK3. The conditions noted are these: ATP at Km (2 μM), read-out: JAK3 kinase inhibitory activity (EC50 indicator). The method, boiled down:
as §1

The target of experiment [4] is T4, TYK2 (aa 871-1187, catalytic domain, GST-tag) (Homo sapiens, UniProt P29597).
T4 construct: JAK1 (aa 850-1154) and TYK2 (aa 871-1187) are expressed with an N-terminally fused GST-tag; GST (N); purchased Carna Biosciences, Inc; host or cells: baculovirus expression system
T4 sequence (P29597 871-1187): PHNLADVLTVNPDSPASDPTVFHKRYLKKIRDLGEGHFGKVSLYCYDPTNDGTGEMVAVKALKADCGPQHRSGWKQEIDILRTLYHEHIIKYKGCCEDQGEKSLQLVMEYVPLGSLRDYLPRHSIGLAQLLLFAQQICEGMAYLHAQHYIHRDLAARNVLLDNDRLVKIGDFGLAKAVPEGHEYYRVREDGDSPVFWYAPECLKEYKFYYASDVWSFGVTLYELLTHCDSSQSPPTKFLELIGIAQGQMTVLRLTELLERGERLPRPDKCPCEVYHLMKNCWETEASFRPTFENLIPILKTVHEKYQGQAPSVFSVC
The experiment can be described thus: JAK kinase assay (HTRF, phosphorylation of TK substrate-biotin), TYK2. The conditions noted are these: ATP at Km (13 μM), read-out: TYK2 kinase inhibitory activity (EC50 indicator). The method, boiled down:
as §1

A word on the pEC50: it is the negative decadic logarithm of the EC50, by convention in mol/L. Regarding `O=C(c1ccc(-c2ccccc2)s1)N1CCN(c2ncnc3[nH]ccc23)CC12CC2` [Example 215, (5-Phenyl-thiophen-2-yl)-[7-(7H-pyrrolo[2,3-d]pyrimidin-4-yl)-4,7-diaza-spiro[2.5]oct-4-yl]-methanone], the negative-log EC50 (pEC50) is more than 7.00 in experiment [1] (HTRF assay), more than 7.00 in experiment [2] (HTRF assay), 6.30 to 7.00 in experiment [3] (HTRF assay) and 6.30 to 7.00 in experiment [4] (HTRF assay).
Turning to `COc1cnc2[nH]ccc2c1N1CCN(C(=O)c2cccc(C#N)c2)C2(CC2)C1` [Example 287, 3-[7-(5-Methoxy-1H-pyrrolo[2,3-b]pyridin-4-yl)-4,7-diaza-spiro[2.5]octane-4-carbonyl]-benzonitrile], the pEC50 was less than 6.30 in experiment [1] (HTRF assay), 6.30 to 7.00 in experiment [2] (HTRF assay), 6.30 to 7.00 in experiment [3] (HTRF assay) and less than 6.30 in experiment [4] (HTRF assay).
For `CCCS(=O)(=O)Nc1ccc(C(=O)N2CCN(c3ncnc4[nH]ccc34)CC23CC3)cc1` [Example 431, Propane-1-sulfonic acid {4-[7-(7H-pyrrolo[2,3-d]pyrimidin-4-yl)-4,7-diaza-spiro[2.5]octane-4-carbonyl]-phenyl}-amide], the pEC50 was more than 7.00 in experiment [1] (HTRF assay), more than 7.00 in experiment [2] (HTRF assay), 6.30 to 7.00 in experiment [3] (HTRF assay) and 6.30 to 7.00 in experiment [4] (HTRF assay).
Take `CS(=O)(=O)c1ccc(CC(=O)N2CCN(c3ncnc4[nH]ccc34)CC23CC3)cc1` [Example 107, 2-(4-Methanesulfonyl-phenyl)-1-[7-(7H-pyrrolo[2,3-d]pyrimidin-4-yl)-4,7-diaza-spiro[2.5]oct-4-yl]-ethanone]: the pEC50 in experiment [1] was more than 7.00; in experiment [2], more than 7.00; in experiment [3], more than 7.00; in experiment [4] it was less than 6.30.
In the case of `N#Cc1ccc2[nH]c(C(=O)N3CCN(c4ncnc5[nH]ccc45)CC34CC4)cc2c1` [Example 217, 2-[7-(7H-Pyrrolo[2,3-d]pyrimidin-4-yl)-4,7-diaza-spiro[2.5]octane-4-carbonyl]-1H-indole-5-carbonitrile], the pEC50 is more than 7.00 in experiment [1] (HTRF assay), more than 7.00 in experiment [2] (HTRF assay), more than 7.00 in experiment [3] (HTRF assay) and 6.30 to 7.00 in experiment [4] (HTRF assay).
`N#Cc1ccc(CC(=O)N2[C@@H]3CC[C@@H]2CN(c2ncnc4[nH]ccc24)C3)cc1` [Example 180, 4-{2-Oxo-2-[3-(7H-pyrrolo[2,3-d]pyrimidin-4-yl)-3,8-diaza-bicyclo[3.2.1]oct-8-yl]-ethyl}-benzonitrile]: the negative-log EC50 (pEC50) in experiment [1] was 6.30 to 7.00; in experiment [2], 6.30 to 7.00; in experiment [3] it was 6.30 to 7.00; in experiment [4], less than 6.30.
For `O=C(c1cccc2cc(O)ccc12)N1[C@@H]2CC[C@@H]1CN(c1ncnc3[nH]ccc13)C2` [Example 359, (6-Hydroxy-naphthalen-1-yl)-[3-(7H-pyrrolo[2,3-d]pyrimidin-4-yl)-3,8-diaza-bicyclo[3.2.1]oct-8-yl]-methanone], the negative logarithm of the EC50 (pEC50) was more than 7.00 in experiment [1] (HTRF assay), more than 7.00 in experiment [2] (HTRF assay), more than 7.00 in experiment [3] (HTRF assay) and 6.30 to 7.00 in experiment [4] (HTRF assay).
Regarding `Cn1cc(S(N)(=O)=O)cc1C(=O)N1CCN(c2ncnc3[nH]ccc23)CC12CC2` [Example 188, 1-Methyl-5-[7-(7H-pyrrolo[2,3-d]pyrimidin-4-yl)-4,7-diaza-spiro[2.5]octane-4-carbonyl]-1H-pyrrole-3-sulfonic acid amide], the negative logarithm of the EC50 (pEC50) in experiment [1], in experiment [2], in experiment [3] and in experiment [4] was more than 7.00 each time.
Consider `O=C(c1cc2cc(F)cc(F)c2[nH]1)N1C2CCC1CN(c1ncnc3[nH]ccc13)C2` [Example 140, (5,7-Difluoro-1H-indol-2-yl)-[3-(7H-pyrrolo[2,3-d]pyrimidin-4-yl)-3,8-diaza-bicyclo[3.2.1]oct-8-yl]-methanone], for which the pEC50 in experiment [1] is more than 7.00; in experiment [2], more than 7.00; in experiment [3], more than 7.00; in experiment [4], less than 6.30.
Take `CC(C)(C)OC(=O)N1[C@@H]2CC[C@H]1CN(c1ncnc3[nH]ccc13)C2` [Example 9, 3-(7H-Pyrrolo[2,3-d]pyrimidin-4-yl)-3,8-diaza-bicyclo[3.2.1]octane-8-carboxylic acid tert-butyl ester]: the pEC50 in experiment [1] was 6.30 to 7.00; in experiment [2], more than 7.00; in experiment [3] it was 6.30 to 7.00; in experiment [4] it was less than 6.30.
On to `CN(CC#N)C(=O)C1(C(=O)N2CCN(c3ncnc4[nH]ccc34)CC23CC3)CC1` [Example 86, 1-[7-(7H-Pyrrolo[2,3-d]pyrimidin-4-yl)-4,7-diaza-spiro[2.5]octane-4-carbonyl]-cyclopropanecarboxylic acid cyanomethyl-methyl-amide], for which the negative logarithm of the EC50 (pEC50) in experiment [1] is less than 6.30; in experiment [2], 6.30 to 7.00; in experiment [3] it was less than 6.30; in experiment [4] it was less than 6.30.
As for `O=C(N1CCN(c2ncnc3[nH]ccc23)CC12CC2)C1(c2ccccc2)CC1` [Example 154, (1-Phenyl-cyclopropyl)-[7-(7H-pyrrolo[2,3-d]pyrimidin-4-yl)-4,7-diaza-spiro[2.5]oct-4-yl]-methanone], the negative-log EC50 (pEC50) in experiment [1] was 6.30 to 7.00; in experiment [2] it was more than 7.00; in experiment [3] it was less than 6.30; in experiment [4], less than 6.30.
For the compound `N#CCc1ccc(CC(=O)N2[C@@H]3CC[C@@H]2CN(c2ncnc4[nH]ccc24)C3)cc1` [Example 347, (4-{2-Oxo-2-[3-(7H-pyrrolo[2,3-d]pyrimidin-4-yl)-3,8-diaza-bicyclo[3.2.1]oct-8-yl]-ethyl}-phenyl)-acetonitrile], the negative logarithm of the EC50 (pEC50) in experiment [1] (HTRF assay) was 6.30 to 7.00; in experiment [2] (HTRF assay), 6.30 to 7.00; in experiment [3] (HTRF assay) it was less than 6.30; in experiment [4] (HTRF assay) it was less than 6.30.
Consider `O=C(c1ccc(CO)cc1)N1CCN(c2ncnc3[nH]ccc23)CC12CC2` [Example 155, (4-Hydroxymethyl-phenyl)-[7-(7H-pyrrolo[2,3-d]pyrimidin-4-yl)-4,7-diaza-spiro[2.5]oct-4-yl]-methanone], for which the negative logarithm of the EC50 (pEC50) was more than 7.00 in experiment [1], more than 7.00 in experiment [2], 6.30 to 7.00 in experiment [3] and 6.30 to 7.00 in experiment [4].
Regarding `CN(CCC#N)C(=O)C1(C(=O)N2CCN(c3ncnc4[nH]ccc34)CC23CC3)CC1` [Example 87, 1-[7-(7H-Pyrrolo[2,3-d]pyrimidin-4-yl)-4,7-diaza-spiro[2.5]octane-4-carbonyl]-cyclopropanecarboxylic acid (2-cyano-ethyl)-methyl-amide], the negative-log EC50 (pEC50) in experiment [1], in experiment [2], in experiment [3] and in experiment [4] was less than 6.30 throughout.
As for `N#CCOc1cccc(C(=O)N2CCN(c3ncnc4[nH]ccc34)CC23CC3)c1` [Example 67, {3-[7-(7H-Pyrrolo[2,3-d]pyrimidin-4-yl)-4,7-diaza-spiro[2.5]octane-4-carbonyl]-phenoxy}-acetonitrile], the pEC50 in experiment [1] is more than 7.00; in experiment [2], more than 7.00; in experiment [3], 6.30 to 7.00; in experiment [4] it was 6.30 to 7.00.
Take `N#Cc1cccc(CS(=O)(=O)N2CCN(c3ncnc4[nH]ccc34)CC23CC3)c1` [Example 76, 3-[7-(7H-Pyrrolo[2,3-d]pyrimidin-4-yl)-4,7-diaza-spiro[2.5]octane-4-sulfonylmethyl]-benzonitrile]: the pEC50 in experiment [1] was more than 7.00; in experiment [2] it was more than 7.00; in experiment [3] it was 6.30 to 7.00; in experiment [4], less than 6.30.
Regarding `O=C(Cc1ccccc1)N1[C@@H]2CC[C@H]1CN(c1ncnc3[nH]ccc13)C2` [Example 32, 2-Phenyl-1-[3-(7H-pyrrolo[2,3-d]pyrimidin-4-yl)-3,8-diazabicyclo[3.2.1]oct-8-yl]ethanone], the negative-log EC50 (pEC50) was 6.30 to 7.00 in experiment [1], 6.30 to 7.00 in experiment [2], less than 6.30 in experiment [3] and less than 6.30 in experiment [4].
With `O=C(Cc1ccc(F)cc1)N1CCN(c2ncnc3[nH]cc(Cl)c23)CC12CC2` [Example 320, 1-[7-(5-Chloro-7H-pyrrolo[2,3-d]pyrimidin-4-yl)-4,7-diaza-spiro[2.5]oct-4-yl]-2-(4-fluoro-phenyl)-ethanone], the pEC50 in experiment [1] (HTRF assay) was 6.30 to 7.00; in experiment [2] (HTRF assay), more than 7.00; in experiment [3] (HTRF assay), 6.30 to 7.00; in experiment [4] (HTRF assay), less than 6.30.
Turning to `Cc1c[nH]c2ncnc(N3CCN(C(=O)CCC#N)C4(CC4)C3)c12` [Example 335, 4-[7-(5-Methyl-7H-pyrrolo[2,3-d]pyrimidin-4-yl)-4,7-diaza-spiro[2.5]oct-4-yl]-4-oxo-butyronitrile], the negative logarithm of the EC50 (pEC50) in experiment [1] (HTRF assay), in experiment [2] (HTRF assay), in experiment [3] (HTRF assay) and in experiment [4] (HTRF assay) was less than 6.30 each time.
